Measured values as given in patent US9695155B2, “Herbicidal substituted pyrimidinyloxy benzene compounds” (E. I. DU PONT DE NEMOURS AND COMPANY, priority 2013, dated 2017).

Columns and labels:
waterhemp = experiment: Test E preemergence; type: in vivo, Amaranthus rudis; conditions: for Waterhemp plant response rating: scale 0 to 100 (0 no effect, 100 complete control)
Outline: (§1)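 Test chemicals formulated in a non-phytotoxic solvent mixture containing a surfactant were applied preemergence to seeds in silt loam soil or postemergence to plants at the 1- to 4-leaf stage in potting mix. After 14 to 21 days in a greenhouse, injury was visually rated against controls on a 0-100 scale (0 = no effect, 100 = complete control).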

field bindweed [1] = experiment: Test E postemergence; type: in vivo, Convolvulus arvensis; conditions: Postemergence, scale 0 to 100
Outline: as §1

velvetleaf = experiment: Test E preemergence; type: in vivo, Abutilon theophrasti; conditions: for Velvetleaf plant response rating: scale 0 to 100 (0 no effect, 100 complete control)
Excerpt: (§2) Seeds of plant species selected from corn (Zea mays), soybean (Glycine max), velvetleaf (Abutilon theophrasti), lambsquarters (Chenopodium album), wild poinsettia (Euphorbia heterophylla), palmer pigweed (Amaranthus palmeri), waterhemp (common waterhemp, Amaranthus rudis), surinam grass (Brachiaria decumbens), large (Lg) crabgrass (Digitaria sanguinalis), Brazilian crabgrass (Digitaria horizontalis), fall panicum (Panicum dichotomiflorum), giant foxtail (Setaria faberii), green foxtail (Setaria viridis), goosegrass (Eleusine indica), johnsongrass (Sorghum halepense), ragweed (common ragweed, Ambrosia elatior), barnyardgrass (Echinochloa crus-galli), sandbur (southern sandbur, Cenchrus echinatus), arrowleaf sida (Sida rhombifolia), Italian ryegrass (Lolium multiflorum), dayflower (Virginia (VA) dayflower, Commelina virginica), field bindweed (Convolvulus arvensis), morningglory (Ipomoea coccinea), nightshade (eastern black nightshade, Solanum ptycanthum), kochia (Kochia scoparia), yellow nutsedge (Cyperus esculentus), cocklebur (common cocklebur, Xanthium strumarium), smartweed (ladysthumb smartweed, and hairy beggarticks (Bidens pilosa), were planted into a silt loam soil and treated preemergence with test chemicals formulated in a non-phytotoxic solvent mixture which included a surfactant.
(§3) At the same time, plants from these crop and weed species and also horseweed (Canada horseweed, Conyza canadensis), waterhemp_RES1, (ALS & Triazine resistant common waterhemp, Amaranthus rudis), and waterhemp_RES2, (ALS & HPPD resistant common waterhemp, Amaranthus rudis) were planted in pots containing Redi-Earth® planting medium (Scotts Company, 14111 Scottslawn Road, Marysville, Ohio 43041) comprising spaghnum peat moss, vermiculite, wetting agent and starter nutrients were treated with postemergence applications of test chemicals formulated in the same manner. Plants ranged in height from 2 to 18 cm for postemergence treatments (1- to 4-leaf stage). Treated plants and controls were maintained in a greenhouse for 14 to 21 days, after which time all species were compared to controls and visually evaluated. Plant response ratings, summarized in Table E, are based on a scale of 0 to 100 where 0 is no effect and 100 is complete control. A dash (-) response means no test result.

dayflower = experiment: Test E preemergence; type: in vivo, Commelina virginica; conditions: for Dayflower, VA plant response rating: scale 0 to 100 (0 no effect, 100 complete control)
Excerpt: as §2, §3

wild poinsettia = experiment: Test E postemergence; type: in vivo, Euphorbia heterophylla; conditions: Postemergence, scale 0 to 100
Outline: as §1

palmer pigweed = experiment: Test E postemergence; type: in vivo, Amaranthus palmeri; conditions: Postemergence, scale 0 to 100
Outline: as §1

corn = experiment: Test C preemergence; type: in vivo, Zea mays; conditions: for Corn plant response rating: preemergence; for Plant response rating, Corn: Preemergence, scale 0 to 100, 0 no effect, 100 complete control
Outline: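 Seeds are planted in blended loam soil and sand and treated preemergence, while seedlings in a peat moss/vermiculite medium receive postemergence sprays at 2 to 18 cm height. All plants stay in the greenhouse for 13 to 15 days before visual comparison with controls on a 0–100 scale.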

Italian ryegrass = experiment: Test E preemergence; type: in vivo, Lolium multiflorum; conditions: for Ryegrass, Italian plant response rating: scale 0 to 100 (0 no effect, 100 complete control)
Excerpt: as §2, §3

soybean = experiment: Test E preemergence; type: in vivo, Glycine max; conditions: for Soybean plant response rating: scale 0 to 100 (0 no effect, 100 complete control)
Outline: as §1

Brazilian crabgrass = experiment: Test E preemergence; type: in vivo, Digitaria horizontalis; conditions: for Crabgrass, Brazil plant response rating: scale 0 to 100 (0 no effect, 100 complete control)
Excerpt: as §2, §3

field bindweed [2] = experiment: Test E preemergence; type: in vivo, Convolvulus arvensis; conditions: for Field Bindweed plant response rating: scale 0 to 100 (0 no effect, 100 complete control)
Outline: as §1

barnyardgrass = experiment: Test E preemergence; type: in vivo, Echinochloa crus-galli; conditions: for Barnyardgrass plant response rating: scale 0 to 100 (0 no effect, 100 complete control)
Excerpt: as §2, §3

[3] = 125 g ai/ha, scale 0 to 100, 0 no effect, 100 complete control
[4] = 250 g ai/ha, scale 0 to 100, 0 no effect, 100 complete control
[5] = 62 g ai/ha, scale 0 (no effect) to 100 (complete control)
[6] = 125 g ai/ha, scale 0 (no effect) to 100 (complete control)
[7] = Preemergence, 62 g ai/ha, scale 0 to 100, 0 no effect, 100 complete control
[8] = preemergence, 125 g ai/ha, scale 0 to 100, 0 no effect, 100 complete control
[9] = 16 g ai/ha, scale 0 to 100 (0 no effect, 100 complete control)
[10] = 8 g ai/ha, scale 0 to 100, 0 is no effect, 100 is complete control

N#Cc1cccc(Oc2ncc(Cl)cn2)c1-n1cc(Cl)cn1 [Compound 72]
Waterhemp plant response rating (waterhemp; 16 g ai/ha): 95
Waterhemp plant response rating (waterhemp; 31 g ai/ha): 98
Waterhemp plant response rating (waterhemp; 62 g ai/ha): 100
Plant response rating, Waterhemp (waterhemp; [3]): 100
Plant response rating, Waterhemp (waterhemp; [4]): 100
Plant response rating, Field Bindweed (field bindweed [1]; 62 g ai/ha): 70
Plant response rating, Field Bindweed (field bindweed [1]; 125 g ai/ha): 80
Velvetleaf plant response rating (velvetleaf; 16 g ai/ha): 0
Velvetleaf plant response rating (velvetleaf; 31 g ai/ha): 0
Velvetleaf plant response rating (velvetleaf; 62 g ai/ha): 40
Plant response rating, Velvetleaf (velvetleaf; [3]): 65
Plant response rating, Velvetleaf (velvetleaf; [4]): 100
Dayflower, VA plant response rating (dayflower; 16 g ai/ha): 0
Dayflower, VA plant response rating (dayflower; 31 g ai/ha): 0
Dayflower, VA plant response rating (dayflower; 62 g ai/ha): 35
Plant response rating, Dayflower, VA (dayflower; [3]): 65
Plant response rating, Dayflower, VA (dayflower; [4]): 95
Plant response rating, Poinsettia, Wild (wild poinsettia; 62 g ai/ha): 55
Plant response rating, Poinsettia, Wild (wild poinsettia; 125 g ai/ha): 60
Plant response rating, Pigweed, Palmer (palmer pigweed; 62 g ai/ha): 75
Plant response rating, Pigweed, Palmer (palmer pigweed; 125 g ai/ha): 90
Corn plant response rating (corn; [5]): 25
Corn plant response rating (corn; [6]): 65
Corn plant response rating (corn; 250 g ai/ha, scale 0 (no effect) to 100 (complete control)): 65
Ryegrass, Italian plant response rating (Italian ryegrass; 16 g ai/ha): 0
Ryegrass, Italian plant response rating (Italian ryegrass; 31 g ai/ha): 15
Ryegrass, Italian plant response rating (Italian ryegrass; 62 g ai/ha): 20
Plant response rating, Ryegrass, Italian (Italian ryegrass; [3]): 35
Plant response rating, Ryegrass, Italian (Italian ryegrass; [4]): 75
Soybean plant response rating (soybean; 16 g ai/ha): 0
Soybean plant response rating (soybean; 31 g ai/ha): 10
Soybean plant response rating (soybean; 62 g ai/ha): 25
Plant response rating, Soybean (soybean; [3]): 70
Plant response rating, Soybean (soybean; [4]): 90
Crabgrass, Brazil plant response rating (Brazilian crabgrass; 16 g ai/ha): 90
Crabgrass, Brazil plant response rating (Brazilian crabgrass; 31 g ai/ha): 98
Crabgrass, Brazil plant response rating (Brazilian crabgrass; 62 g ai/ha): 100
Plant response rating, Crabgrass, Brazil (Brazilian crabgrass; [3]): 100
Plant response rating, Crabgrass, Brazil (Brazilian crabgrass; [4]): 100
Field Bindweed plant response rating (field bindweed [2]; 16 g ai/ha): 0
Field Bindweed plant response rating (field bindweed [2]; 31 g ai/ha): 5
Field Bindweed plant response rating (field bindweed [2]; 62 g ai/ha): 10
Plant response rating, Field Bindweed (field bindweed [2]; [3]): 60
Plant response rating, Field Bindweed (field bindweed [2]; [4]): 95
Barnyardgrass plant response rating (barnyardgrass; 16 g ai/ha, preemergence): 0
Barnyardgrass plant response rating (barnyardgrass; 31 g ai/ha, preemergence): 0
Plant response rating, Barnyardgrass (barnyardgrass; [7]): 15
Plant response rating, Barnyardgrass (barnyardgrass; [8]): 35
Plant response rating, Barnyardgrass (barnyardgrass; preemergence, 250 g ai/ha, scale 0 to 100, 0 no effect, 100 complete control): 90

Cc1cnc(Oc2cccc(C#N)c2-n2cc(C#N)cn2)nc1 [Compound 90]
Waterhemp plant response rating (waterhemp; 16 g ai/ha): 0
Waterhemp plant response rating (waterhemp; 31 g ai/ha): 0
Waterhemp plant response rating (waterhemp; 62 g ai/ha): 20
Plant response rating, Waterhemp (waterhemp; [3]): 100
Velvetleaf plant response rating (velvetleaf; 16 g ai/ha): 0
Velvetleaf plant response rating (velvetleaf; 31 g ai/ha): 20
Velvetleaf plant response rating (velvetleaf; 62 g ai/ha): 60
Plant response rating, Velvetleaf (velvetleaf; [3]): 85
Dayflower, VA plant response rating (dayflower; 16 g ai/ha): 0
Dayflower, VA plant response rating (dayflower; 31 g ai/ha): 0
Plant response rating, Dayflower, VA (dayflower; [3]): 0
Corn plant response rating (corn; [9]): 0
Corn plant response rating (corn; [5]): 10
Corn plant response rating (corn; [6]): 45
Plant response rating, Corn (corn; 31 g ai/ha): 0
Ryegrass, Italian plant response rating (Italian ryegrass; 16 g ai/ha): 0
Ryegrass, Italian plant response rating (Italian ryegrass; 31 g ai/ha): 0
Ryegrass, Italian plant response rating (Italian ryegrass; 62 g ai/ha): 0
Plant response rating, Ryegrass, Italian (Italian ryegrass; [3]): 0
Soybean plant response rating (soybean; 31 g ai/ha): 15
Soybean plant response rating (soybean; 62 g ai/ha): 30
Plant response rating, Soybean (soybean; [3]): 35
Crabgrass, Brazil plant response rating (Brazilian crabgrass; 16 g ai/ha): 0
Crabgrass, Brazil plant response rating (Brazilian crabgrass; 31 g ai/ha): 20
Crabgrass, Brazil plant response rating (Brazilian crabgrass; 62 g ai/ha): 50
Plant response rating, Crabgrass, Brazil (Brazilian crabgrass; [3]): 80
Field Bindweed plant response rating (field bindweed [2]; 16 g ai/ha): 35
Field Bindweed plant response rating (field bindweed [2]; 31 g ai/ha): 50
Field Bindweed plant response rating (field bindweed [2]; 62 g ai/ha): 70
Plant response rating, Field Bindweed (field bindweed [2]; [3]): 65
Barnyardgrass plant response rating (barnyardgrass; 16 g ai/ha, preemergence): 0
Barnyardgrass plant response rating (barnyardgrass; 31 g ai/ha, preemergence): 0
Plant response rating, Barnyardgrass (barnyardgrass; [7]): 0
Plant response rating, Barnyardgrass (barnyardgrass; [8]): 40

NC(=S)c1cccc(Oc2ncc(Cl)cn2)c1-n1cc(Cl)cn1 [Compound 292]
Plant response rating, Waterhemp (waterhemp; [10]): 0
Waterhemp plant response rating (waterhemp; 31 g ai/ha): 20
Waterhemp plant response rating (waterhemp; 62 g ai/ha): 80
Plant response rating, Waterhemp (waterhemp; [3]): 100
Plant response rating, Velvetleaf (velvetleaf; [10]): 0
Velvetleaf plant response rating (velvetleaf; 31 g ai/ha): 30
Velvetleaf plant response rating (velvetleaf; 62 g ai/ha): 35
Plant response rating, Velvetleaf (velvetleaf; [3]): 90
Plant response rating, Dayflower, VA (dayflower; [10]): 20
Dayflower, VA plant response rating (dayflower; 16 g ai/ha): 20
Dayflower, VA plant response rating (dayflower; 31 g ai/ha): 20
Dayflower, VA plant response rating (dayflower; 62 g ai/ha): 35
Plant response rating, Dayflower, VA (dayflower; [3]): 85
Corn plant response rating (corn; [9]): 0
Corn plant response rating (corn; 31 g ai/ha, scale 0 to 100 (0 no effect, 100 complete control)): 5
Corn plant response rating (corn; [6]): 45
Plant response rating, Corn (corn; 62 g ai/ha): 10
Plant response rating, Ryegrass, Italian (Italian ryegrass; [10]): 0
Ryegrass, Italian plant response rating (Italian ryegrass; 31 g ai/ha): 0
Ryegrass, Italian plant response rating (Italian ryegrass; 62 g ai/ha): 0
Plant response rating, Ryegrass, Italian (Italian ryegrass; [3]): 35
Plant response rating, Soybean (soybean; [10]): 0
Soybean plant response rating (soybean; 31 g ai/ha): 0
Soybean plant response rating (soybean; 62 g ai/ha): 40
Plant response rating, Soybean (soybean; [3]): 50
Plant response rating, Crabgrass, Brazil (Brazilian crabgrass; [10]): 0
Crabgrass, Brazil plant response rating (Brazilian crabgrass; 16 g ai/ha): 10
Crabgrass, Brazil plant response rating (Brazilian crabgrass; 31 g ai/ha): 40
Crabgrass, Brazil plant response rating (Brazilian crabgrass; 62 g ai/ha): 100
Plant response rating, Crabgrass, Brazil (Brazilian crabgrass; [3]): 100
Plant response rating, Field Bindweed (field bindweed [2]; [10]): 0
Field Bindweed plant response rating (field bindweed [2]; 16 g ai/ha): 0
Field Bindweed plant response rating (field bindweed [2]; 31 g ai/ha): 5
Field Bindweed plant response rating (field bindweed [2]; 62 g ai/ha): 30
Plant response rating, Field Bindweed (field bindweed [2]; [3]): 65
Plant response rating, Barnyardgrass (barnyardgrass; 8 g ai/ha, preemergence, scale 0 to 100, 0 is no effect, 100 is complete control): 0
Barnyardgrass plant response rating (barnyardgrass; 16 g ai/ha, preemergence): 0
Barnyardgrass plant response rating (barnyardgrass; 31 g ai/ha, preemergence): 0
Barnyardgrass plant response rating (barnyardgrass; 62 g ai/ha, preemergence): 0
Plant response rating, Barnyardgrass (barnyardgrass; [8]): 40
